Test systems include U-251; DU-145; SK-MEL-2; UO-31; A498; MCF7; MOLT-4; NCI-H226; COLO 205; SF-539; SF-295; SNB-75; T47D; MDA-MB-231; TK-10; MDA-MB-435; A549; HOP-92; SNB-19; UACC-257.
Assay in all cases: NCI anticancer screen, dose series, 48 h

The source of these data is ChEMBL document CHEMBL1201862, “PubChem BioAssay data set” (2004).

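Grown in 96-well plates, cells were treated for 48 hours with each compound at five concentrations. Insufficient inhibition: endpoint recorded as highest concentration tested. GI50: concentration for 50% inhibition of growth.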 Calls of active or inactive are those of the source. Rule as the data show it: active = GI50 up to about 1.1 µM and inactive = higher. Where only a bound is given, the exact number is not on record here.

With `OCC1OC(n2cnc3c(SCc4ccccc4)ncnc32)C(O)C1O` (stereo not given), the GI50 in the experiment on U-251 was > 100 µM (inactive); in the experiment on DU-145, 5.35 µM (inactive); in the experiment with SK-MEL-2, 96.8 µM (inactive); with UO-31, 23 µM (inactive); in the experiment on A498, 2.98 µM (inactive); with MCF7 it was 3.08 µM (inactive). In addition, the GI50 with MOLT-4 is 0.773 µM (active); in the experiment with NCI-H226, > 67.3 µM (inactive); with COLO 205, 14 µM (inactive); with SF-539, > 100 µM (inactive); in the experiment on SF-295, > 74.1 µM (inactive); in the experiment on SNB-75, > 100 µM (inactive). Further, the GI50 in the experiment with T47D was 40.5 µM (inactive); in the experiment with MDA-MB-231 it was 5.48 µM (inactive); in the experiment with TK-10, > 21.8 µM (inactive); in the experiment on MDA-MB-435, > 100 µM (inactive); in the experiment on A549 it was 26.3 µM (inactive); in the experiment on HOP-92 it was 4.75 µM (inactive). Besides, the GI50 with SNB-19 and in the experiment on UACC-257 was > 100 µM (inactive) throughout.
Take `C=C(CN(C)C)C(=O)c1ccc(Oc2ccccc2)cc1`: the GI50 with U-251 is 10.3 µM (inactive); with DU-145, 14.5 µM (inactive); in the experiment on SK-MEL-2, 9.2 µM (inactive); with UO-31, 3.53 µM (inactive); with A498, 17.7 µM (inactive); with MCF7 it was 3.3 µM (inactive). Besides, the GI50 in the experiment on MOLT-4 was 0.356 µM (active); in the experiment on NCI-H226 it was 13.6 µM (inactive); in the experiment with COLO 205, 1.04 µM (active); with SF-539, 3.13 µM (inactive); in the experiment with SF-295, 16.7 µM (inactive); with SNB-75, 15.9 µM (inactive). The GI50 is 2.7 µM (inactive) with T47D; 5.81 µM (inactive) in the experiment with MDA-MB-231; 5.86 µM (inactive) in the experiment on TK-10; 3.85 µM (inactive) in the experiment on MDA-MB-435; 19.5 µM (inactive) in the experiment on A549; 2.18 µM (inactive) in the experiment on HOP-92. The results for the GI50 with SNB-19 and in the experiment with UACC-257 were 9.64 µM (inactive) and 8.36 µM (inactive), respectively.
